The test has as its target T1, Tumor necrosis factor receptor superfamily member 1A (Homo sapiens, UniProt P19438).
T1 sequence (P19438 whole entry): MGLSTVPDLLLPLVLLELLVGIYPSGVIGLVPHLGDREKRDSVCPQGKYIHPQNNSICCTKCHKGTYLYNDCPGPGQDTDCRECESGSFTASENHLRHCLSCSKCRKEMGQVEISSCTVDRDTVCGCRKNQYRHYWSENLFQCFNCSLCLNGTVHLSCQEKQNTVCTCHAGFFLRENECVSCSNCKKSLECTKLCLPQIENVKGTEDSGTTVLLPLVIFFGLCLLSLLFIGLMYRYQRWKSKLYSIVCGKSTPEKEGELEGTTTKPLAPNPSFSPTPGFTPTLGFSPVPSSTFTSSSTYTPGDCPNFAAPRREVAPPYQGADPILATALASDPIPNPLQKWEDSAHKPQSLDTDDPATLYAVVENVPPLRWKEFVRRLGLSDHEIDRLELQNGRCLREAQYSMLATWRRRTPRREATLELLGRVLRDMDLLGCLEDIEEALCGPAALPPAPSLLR
Kind of test: ChEBML_212214. From the text: Inhibition of TNF-alpha binding to TNFRc1

By IC50 is commonly meant the concentration that gives 50% inhibition. A higher IC50 goes with lower potency. The compound `C=CCn1c(S)c2c(=C)c3c(OC)cc(OC)cc3n2c1=O` [2-Allyl-6,8-dimethoxy-9-methyl-1-thioxo-1,2-dihydro-imidazo[1,5-a]indol-3-one] came in with an IC50 of 210 nM.

`C=CCn1c(S)c2c(=C)c3c(OC)cc(OC)cc3n2c1=S` [2-Allyl-6,8-dimethoxy-9-methyl-imidazo[1,5-a]indole-1,3-dithione] gave a half-maximal inhibitory concentration (IC50) of 210 nM.

For the origin of these results see BindingDB's records for doi:10.1016/s0960-894x(02)00941-1 (Bristol-Myers Squibb Pharmaceuticals, 2003).
